Numbered stars: 1 amine (or outer) side, 2 acyl side, 3 side chain; on linkers, the order of the positions; unused ones are H or OH. Bridge positions count the residues as written; N and C are the ends. Square brackets hold non-standard residues; d marks the D form. Peptide text beside a SMILES is read from it. * marks the point of attachment. NMeAbu(3,3-F2-piperidino) = CN[C@@H](CCN1CCCC(F)(F)C1)C(=O)O; hPhe(3-Cl-4-CF3) = N[C@@H](CCc1ccc(C(F)(F)F)c(Cl)c1)C(=O)O; hPhe(3-F,4-CF3) = N[C@@H](CCc1ccc(C(F)(F)F)c(F)c1)C(=O)O; NMePhe(4-Cl) = CN[C@@H](Cc1ccc(Cl)cc1)C(=O)O; NMePhe(4-Me) = CN[C@@H](Cc1ccc(C)cc1)C(=O)O; NMedβ3hAla = C[C@H](CC(=O)[*:2])N(C)[*:1]; NMeGly(cPent) = CN[C@H](C(=O)O)C1CCCC1; NMeCha = CN[C@@H](CC1CCCCC1)C(=O)O; NMeChg = CN[C@H](C(=O)O)C1CCCCC1; NMeI = CC[C@H](C)[C@H](NC)C(=O)O; NMeD = CN[C@@H](CC(=O)O)C(=O)O; NMeL = CN[C@@H](CC(C)C)C(=O)O; NMeNva = CCC[C@H](NC)C(=O)O; NMeV = CN[C@H](C(=O)O)C(C)C; d(β3hA) = C[C@@H](N)CC(=O)O; Iva = CC[C@](C)(N)C(=O)O; NMeA = CN[C@@H](C)C(=O)O; Piperidide = C1CCN(*)CC1; Ac5c = NC1(C(=O)O)CCCC1; Aze = O=C(O)[C@@H]1CCN1; Thp = NC1(C(=O)O)CCOCC1; NPrGly = CCCNCC(=O)O; Sar = CNCC(=O)O
What follows are compounds tested on Human pancreatic cancer cell line AsPC-1 (G12D mutation Kras) (assay: AsPC-1 cell growth inhibition (AsPC-1 CGI)). Conditions: read-out: AsPC-1 cell growth inhibition, 50% growth inhibitory concentration (IC50 value); 96 hours, CellTiter-Glo, values classified in ranges.
Type: cell-based
Protocol: Test compounds were serially dilated with dimethyl sulfoxide, and 200 nL was then dispensed to a U-bottom 96-well plate using Labcyte Echo. […] The cell suspension was dispensed to a. plate containing a test compound at 100 μL per well and incubated at 37° C. in a 5% carbon dioxide gas incubator. 96 hours later, 80 μL of CellTiter-Glo (Promega) was added to each well and fluorescence was measured.
Work on `CC[C@H](C)[C@@H]1NC(=O)[C@H](CC(C)C)N(C)C(=O)C[C@@H](C(=O)N(C)C)N(C)C(=O)[C@H]([C@@H](C)CC)N(C)C(=O)[C@H](C)NC(=O)[C@@H](C)NC(=O)[C@H](CCc2ccc(C(F)(F)F)c(Cl)c2)NC(=O)CN(C)C(=O)[C@H](Cc2ccc(C)cc2)N(C)C(=O)[C@@H]2CCN2C(=O)[C@H](C)N(C)C1=O` [Compound 382] ([NMeL]I[NMeA][Aze][NMePhe(4-Me)][Sar][hPhe(3-Cl-4-CF3)][dA]A[NMeI][NMeD]-NMe2; lactam N-11) yielded an IC50 greater than 0.5 µM. `CC[C@H](C)[C@@H]1NC(=O)[C@H](CC(C)C)N(C)C(=O)C[C@@H](C(=O)N(C)C)N(C)C(=O)[C@H](C2CCCC2)N(C)C(=O)[C@H](C(C)C)NC(=O)[C@H](CCN2CCCC(F)(F)C2)N(C)C(=O)[C@H](CCc2ccc(C(F)(F)F)c(Cl)c2)NC(=O)CN(C)C(=O)[C@H](CC2CCCCC2)N(C)C(=O)[C@@H]2CCN2C(=O)[C@H](C)N(C)C1=O` [Compound 389] ([NMeL]I[NMeA][Aze][NMeCha][Sar][hPhe(3-Cl-4-CF3)][NMeAbu(3,3-F2-piperidino)]V[NMeGly(cPent)][NMeD]-NMe2; lactam N-11) gave an IC50 greater than 0.5 µM. Work on `CCC[C@H]1C(=O)N[C@@H]([C@@H](C)CC)C(=O)N(C)[C@@H](C)C(=O)N2CC[C@H]2C(=O)N(C)[C@@H](CC2CCCCC2)C(=O)N(C)CC(=O)N[C@@H](CCc2ccc(C(F)(F)F)c(Cl)c2)C(=O)N2CCC[C@H]2C(=O)NC2(CCCC2)C(=O)N(C)[C@@H](C2CCCC2)C(=O)N(C)[C@H](C(=O)N2CCCCC2)CC(=O)N1C` [Compound 391] ([NMeNva]I[NMeA][Aze][NMeCha][Sar][hPhe(3-Cl-4-CF3)]P[Ac5c][NMeGly(cPent)][NMeD]-Piperidide; lactam N-11) yielded an IC50 of no more than 0.02 µM. `CCC[C@H]1C(=O)NC2(CCCC2)C(=O)N(C)[C@@H](C2CCCCC2)C(=O)N(C)[C@H](C(=O)N2CCCCC2)CC(=O)N(C)[C@@H](CC(C)C)C(=O)N[C@@H]([C@@H](C)CC)C(=O)N(C)CC(=O)N2CCC[C@H]2C(=O)N(C)[C@@H](CC2CCCCC2)C(=O)N(C)CC(=O)N[C@@H](CCc2ccc(C(F)(F)F)c(Cl)c2)C(=O)N1C` [Compound 392] ([NMeL]I[Sar]P[NMeCha][Sar][hPhe(3-Cl-4-CF3)][NMeNva][Ac5c][NMeChg][NMeD]-Piperidide; lactam N-11) was tested, and the IC50 was greater than 0.5 µM. For `CC[C@H](C)[C@@H]1NC(=O)[C@H](CC(C)C)N(C)C(=O)C[C@@H](C(=O)N2CCCCC2)N(C)C(=O)[C@H](C(C)C)N(C)C(=O)[C@](C)(CC)NC(=O)[C@@H]2CCCN2C(=O)[C@H](CCc2ccc(C(F)(F)F)c(Cl)c2)NC(=O)CN(C)C(=O)[C@H](CC2CCCCC2)N(C)C(=O)[C@@H]2CCN2C(=O)[C@H](C)N(C)C1=O` [Compound 394] ([NMeL]I[NMeA][Aze][NMeCha][Sar][hPhe(3-Cl-4-CF3)]P[Iva][NMeV][NMeD]-Piperidide; lactam N-11), the IC50 was greater than 0.5 µM. With `CC[C@H](C)[C@@H]1NC(=O)[C@H](CC(C)C)N(C)C(=O)C[C@@H](C)NC(=O)[C@H](CC(C)C)N(C)C(=O)C2(CCCC2)NC(=O)[C@@H]2CCCN2C(=O)[C@H](CCc2ccc(C(F)(F)F)c(F)c2)NC(=O)CN(C)C(=O)[C@H](CC2CCCCC2)N(C)C(=O)CN(C)C(=O)CN(C)C1=O` [Compound 402] (cyclo([Ac5c][NMeL][d(β3hA)][NMeL]I[Sar][Sar][NMeCha][Sar][hPhe(3-F,4-CF3)]P)) the IC50 was greater than 0.5 µM. `CCCN1CC(=O)N(C)[C@@H](CC2CCCCC2)C(=O)N(C)CC(=O)N[C@@H](CCc2ccc(C(F)(F)F)c(Cl)c2)C(=O)N2CCC[C@H]2C(=O)NC2(CCCC2)C(=O)N(C)[C@@H](C(C)C)C(=O)N[C@H](C)CC(=O)N(C)[C@@H](CC(C)C)C(=O)N[C@@H]([C@@H](C)CC)C(=O)N(C)CC1=O` [Compound 405] (cyclo([Ac5c][NMeV][d(β3hA)][NMeL]I[Sar][NPrGly][NMeCha][Sar][hPhe(3-Cl-4-CF3)]P)) showed an IC50 greater than 0.5 µM. `CC[C@H](C)[C@@H]1NC(=O)[C@H](CC(C)C)N(C)C(=O)C[C@@H](C)N(C)C(=O)[C@H](CC(C)C)N(C)C(=O)C2(CCOCC2)NC(=O)[C@@H]2CCCN2C(=O)[C@H](CCc2ccc(C(F)(F)F)c(F)c2)NC(=O)CN(C)C(=O)[C@H](CC2CCCCC2)N(C)C(=O)CN(C)C(=O)CN(C)C1=O` [Compound 407] (cyclo(I[Sar][Sar][NMeCha][Sar][hPhe(3-F,4-CF3)]P[Thp][NMeL][NMedβ3hAla][NMeL])) was tested, and the IC50 was greater than 0.5 µM. For `CC[C@H](C)[C@@H]1NC(=O)[C@H](CC(C)C)N(C)C(=O)C[C@@H](C(=O)N2CCCCC2)NC(=O)[C@H](C(C)C)N(C)C(=O)C2(CCCC2)NC(=O)[C@@H]2CCCN2C(=O)[C@H](CCc2ccc(C(F)(F)F)c(Cl)c2)NC(=O)CN(C)C(=O)[C@H](CC2CCCCC2)N(C)C(=O)CN(C)C(=O)CN(C)C1=O` [Compound 417] ([NMeL]I[Sar][Sar][NMeCha][Sar][hPhe(3-Cl-4-CF3)]P[Ac5c][NMeV]D-Piperidide; lactam N-11), the IC50 was greater than 0.5 µM. `CC[C@H](C)[C@@H]1NC(=O)[C@H](C(C)C)N(C)C(=O)C[C@@H](C)NC(=O)[C@H](CC(C)C)N(C)C(=O)C2(CCCC2)NC(=O)[C@H](CC(C)C)N(C)C(=O)[C@H](CCc2ccc(C(F)(F)F)c(F)c2)NC(=O)CN(C)C(=O)[C@H](Cc2ccc(Cl)cc2)N(C)C(=O)[C@@H]2CCN2C(=O)CN(C)C1=O` [Compound 418] (cyclo([Ac5c][NMeL][d(β3hA)][NMeV]I[Sar][Aze][NMePhe(4-Cl)][Sar][hPhe(3-F,4-CF3)][NMeL])) was tested, and the IC50 was greater than 0.5 µM.
